The values below come from patent US20240417370A1, “LIPIDS FOR USE IN LIPID NANOPARTICLE FORMULATIONS” (Acuitas Therapeutics, Inc., priority 2023, published 2024).

This test relates to human IgG in mouse serum. The test is described as follows: Immunoglobulin G (IgG) mRNA in vivo evaluation using lipid nanoparticle compositions. Set-up: species or system mice. To be noted: LNP-formulated lipid, tail vein injection, μg IgG/mL serum 24 hours after administration; for Serum IgG @ 0.3 mg/kg: 0.3 mg mRNA/kg; for Serum IgG @ 1.0 mg/kg: 1.0 mg mRNA/kg. On the procedure:
A lipid of structure (I), DSPC, cholesterol and PEG-lipid are solubilized in ethanol at a molar ratio of 50:10:38.5:1.5 or 47.5:10:40.7:1.8. Lipid nanoparticles (LNP) are prepared at a total lipid to mRNA weight ratio of approximately 10:1 to 40:1. Briefly, the mRNA is diluted to 0.2 mg/mL in 10 to 50 mM citrate buffer, pH 4 to 6 or 10 to 25 mM acetate buffer, pH 4 to 6. Syringe pumps are used to mix the ethanolic lipid solution with the mRNA aqueous solution at a ratio of about 1:5 to 1:3 (vol/vol) with total flow rates above 15 mL/min. The ethanol is then removed, and the external buffer replaced with PBS by dialysis. Finally, the lipid nanoparticles are filtered through a 0.2 µm pore sterile filter.
Studies are performed in 6-8-week-old CD-1/ICR mice (Envigo, Charles River, or Inotiv) according to guidelines established by an institutional animal care committee (ACC) and the Canadian Council on Animal Care (CCAC). Varying doses of mRNA-lipid nanoparticle are systemically administered by tail vein injection and animals euthanized at a specific time point (e.g., 24 hours) post-administration. The whole blood is collected, and the serum subsequentially separated by centrifuging the tubes of the whole blood at 2000×g for 10 minutes at 4° C. and stored at −80° C. until use for analysis.
For immunoglobulin G (IgG) ELISA (Life Diagnostics Human IgG ELISA kit), the serum samples are diluted at 100 to 20,000 folds with 1× diluent solution. 100 μL of diluted serum is dispensed into anti-human IgG coated 96-well plate in duplicate alongside human IgG standards and incubated in a plate shaker at 150 rpm at 25° C. for 45 minutes. The wells are washed 5 times with 1× wash solution using a plate washer (400 μL/well). 100 μL of HRP conjugate is added into each well and incubated in a plate shaker at the same condition above. The wells are washed 5 times again with 1× wash solution using a plate washer (400 μL/well). 100 μL of TMB reagent is added into each well and incubated in a plate shaker at the same condition above. The reaction is stopped by adding 100 μL of Stop solution to each well. The absorbance is read at 450 nm (A450) with a microplate reader. The amount of human IgG in mouse serum is determined by plotting A450 values for the assay standard against human IgG concentration.
Representative compounds of the disclosure shown in Table 2 were formulated using the following molar ratio: 50% cationic lipid/10% distearoylphosphatidylcholine (DSPC)/38.5% Cholesterol/1.5% PEG lipid 2-[2-(ω-methoxy(polyethyleneglycol2000)ethoxy]-N,N-ditetradecylacetamide) or 47.5% cationic lipid/10% DSPC/40.7% Cholesterol/1.8% PEG lipid. Relative activity was determined by measuring luciferase expression in the liver 4 hours following administration via tail vein injection as described in Example 1 or by measuring the amount of human IgG in mouse serum as described in example 2. The activity was compared at a dose of 1.0 or 0.5 or 0.3 mg mRNA/kg and expressed as ng luciferase/g liver measured 4 hours after administration, as described in Example 1 or as μg IgG/mL serum measured 24 hours after administration, as described in Example 2. Compound numbers in Table 2 refer to the compound numbers of Table 1.

Regarding `CCCCCCCCCCN(CCCCCCCCCC)C(=O)CCCCCCCN(CCCCCCCC(=O)N(CCCCCCCCCC)CCCCCCCCCC)[C@@H]1CC[C@H](O)C1` (racemic) [(rac)-(1RS, 3SR) I-14, 8,8′-(((1r,3s)-3-hydroxycyclopentyl)azanediyl)bis(N,N-didecyloctanamide); 8,8′-(((1s,3r)-3-hydroxycyclopentyl)azanediyl)bis(N,N-didecyloctanamide)], the “Serum IgG @ 0.3 mg/kg” value stood at 15.74 ± 5.71 µg/mL and the “Serum IgG @ 1.0 mg/kg” value was found to be 66.16 ± 16.66 µg/mL.

Consider `CCCCCCCCCCN(CCCCCCCCCC)C(=O)CCCCCCCN(CCCCCCCC(=O)N(CCCC)C(CCCCCCCC)CCCCCCCC)[C@H]1CC[C@@H](O)CC1` [(1S, 4S) I-59, N-butyl-8-((8-(didecylamino)-8-oxooctyl)((1s,4s)-4-hydroxycyclohexyl)amino)-N-(heptadecan-9-yl)octanamide], for which the “Serum IgG @ 0.3 mg/kg” value was determined as 84.23 ± 17.22 µg/mL.

For `CCCCCCCCCCN(CCCCCCCCCC)C(=O)CCCCCCCCCN(CCCCCC(=O)N(CCCCCCCCCC)CCCCCCCCCC)[C@H]1CC[C@@H](O)CC1` [(15, 4S) I-61, N,N-didecyl-10-((6-(didecylamino)-6-oxohexyl)((1s,4s)-4-hydroxycyclohexyl)amino)decanamide], the “Serum IgG @ 0.3 mg/kg” value was 40.66 ± 9.70 µg/mL.

As for `CCCCCCCCCCN(CCCCCCCCCC)C(=O)CCCCCCCN(CCCCCCCC(=O)NC(CCCCCCCCC)CCCCCCCCC)[C@H]1CC[C@@H](O)CC1` [(1S, 4S) I-58, N,N-didecyl-8-(((1s,4s)-4-hydroxycyclohexyl)(8-(nonadecan-10-ylamino)-8-oxooctyl)amino)octanamide], the “Serum IgG @ 0.3 mg/kg” value was 61.75 ± 11.64 µg/mL.

Regarding `CCCCCCCCCCN(CCCCCCCCCC)C(=O)C(F)CCCCCCN(CCCCCCC(F)C(=O)N(CCCCCCCCCC)CCCCCCCCCC)[C@H]1CC[C@@H](O)CC1` (stereo partly drawn) [(1S, 4S) I-49, 8,8′-(((1s,4s)-4-hydroxycyclohexyl)azanediyl)bis(N,N-didecyl-2-fluorooctanamide)], the “Serum IgG @ 0.3 mg/kg” value came to 60.49 ± 26.40 µg/mL and the “Serum IgG @ 1.0 mg/kg” value came out at 332.8 ± 57.13 µg/mL.

`CCCCCCCCCCN(CCCCCCCCCC)C(=O)CCCCCCCN(CCCCCCCC(=O)N(CCCCCCCCCC)CCCCCCCCCC)C[C@H]1C[C@@H]1CO` (racemic) [(rac)-(1RS, 2RS) I-45, 8,8′-((((1s,2s)-2-(hydroxymethyl)cyclopropyl)methyl)azanediyl)bis(N,N-didecyloctanamide)]: the “Serum IgG @ 0.3 mg/kg” value came out at 10.95 ± 4.31 µg/mL.

Regarding `CCCCCCCCCCN(CCCCCCCCCC)C(=O)CCCCCCCN(CCCCCCCC(=O)N(CCCCCCCCCC)CCCCCCCCCC)[C@H]1C[C@@H](O)C1` [(1S, 3S) I-10, 8,8′-(((1S,3S)-3-hydroxycyclobutyl)azanediyl)bis(N,N-didecyloctanamide)], the “Serum IgG @ 0.3 mg/kg” value was found to be 27.62 ± 9.67 µg/mL and the “Serum IgG @ 1.0 mg/kg” value was determined as 187.67 ± 66.41 µg/mL.

For `CCCCCCCCCCN(CCCCCCCCCC)C(=O)CCCCCCCN(CCCCCCCC(=O)N(CCCCCCCCCC)CCCCCCCCCC)[C@H]1C[C@H](O)C[C@H](O)C1` [(1s, 3R, 5S) I-34, 8,8′-(((1s,3r,5s)-3,5-dihydroxycyclohexyl)azanediyl)bis(N,N-didecyloctanamide)], the “Serum IgG @ 0.3 mg/kg” value stood at 7.06 ± 4.68 µg/mL and the “Serum IgG @ 1.0 mg/kg” value amounted to 57.07 ± 24.86 µg/mL.

With `C=CCCCCCCCCN(CCCCCCCCCC)C(=O)CCCCCCCN(CCCCCCCC(=O)N(CCCCCCCCC=C)CCCCCCCCCC)[C@H]1CC[C@@H](O)CC1` [(1S, 4S) I-51, 8,8′-(((1s,4s)-4-hydroxycyclohexyl)azanediyl)bis(N-(dec-9-en-1-yl)-N-decyloctanamide)], the “Serum IgG @ 0.3 mg/kg” value was 80.37 ± 26.77 µg/mL.

For the molecule `CCCCCCCCCCN(CCCCCCCCN(CCCCCCCC(=O)N(CCCCCCCCCC)CCCCCCCCCC)[C@H]1CC[C@@H](O)CC1)C(=O)CCCCCCCCC` [(1S, 4S) I-47, N-decyl-N-(8-((8-(didecylamino)-8-oxooctyl)((1s,4s)-4-hydroxycyclohexyl)amino)octyl)decanamide], the “Serum IgG @ 0.3 mg/kg” value was 55.53 ± 11.50 µg/mL and the “Serum IgG @ 1.0 mg/kg” value was found to be 158.59 ± 40.38 µg/mL.

In the case of `CCCCCCCCC(CCCCCCCC)N(CCCC)C(=O)CCCCCCCN(CCCCCCCC(=O)N(CCCC)C(CCCCCCCC)CCCCCCCC)[C@H]1CC[C@@H](O)CC1` [(1S, 4S) I-54, 8,8′-(((1s,4s)-4-hydroxycyclohexyl)azanediyl)bis(N-butyl-N-(heptadecan-9-yl)octanamide)], the “Serum IgG @ 0.3 mg/kg” value is 43.22 ± 12.97 µg/mL.

Regarding `CCCCCCCCCCN(CCCCCCCCCC)C(=O)CCCCCCCN(CCCCCCCC(=O)N(CCCCCCCCCC)CCCCCCCCCC)[C@@H]1CCC[C@@H](O)C1` [(1R, 3R) I-17, 8,8′-(((1R,3R)-3-hydroxycyclohexyl)azanediyl)bis(N,N-didecyloctanamide)], the “Serum IgG @ 0.3 mg/kg” value was 27.97 ± 3.37 µg/mL and the “Serum IgG @ 1.0 mg/kg” value worked out at 178.14 ± 33.27 µg/mL.

On to `CCCCCCCCCCCCN(CCCCCC)C(=O)CCCCCCCN(CCCCCCCC(=O)N(CCCCCC)CCCCCCCCCCCC)[C@H]1CC[C@@H](O)CC1` [(1S, 4S) I-52], for which the “Serum IgG @ 0.3 mg/kg” value was 40.24 ± 18.53 µg/mL.

Turning to `CCCCCCCCCCN(CCCCCCCCCC)C(=O)CCCCCCCN(CCCCCCCC(=O)N(CCCCCCCCCC)CCCCCCCCCC)[C@H]1CC[C@@](C)(O)CC1` [(1S, 4S) I-25, 8,8′-(((1S,4S)-4-hydroxy-4-methylcyclohexyl)azanediyl)bis(N,N-didecyloctanamide)], the “Serum IgG @ 0.3 mg/kg” value is 39.96 ± 10.72 µg/mL and the “Serum IgG @ 1.0 mg/kg” value stood at 194.38 ± 27.83 µg/mL.

Consider `CCCCCCCCCCN(CCCCCCCCN(CCCCCCCC(=O)N(CCCCCCCCCC)CCCCCCCCCC)C[C@H]1C[C@@H](O)C1)C(=O)CCCCCCCCC` [(1S, 3S) I-21, N-decyl-N-(8-((8-(didecylamino)-8-oxooctyl)(((1S,3S)-3-hydroxycyclobutyl)methyl)amino)octyl)decanamide], for which the “Serum IgG @ 0.3 mg/kg” value stood at 71.49 ± 12.31 µg/mL.

As for `CCCCCCCCCCN(CCCCCCCCCC)C(=O)CCCCCCCN(CCCCCCCC(=O)N(CCCCCCCCCC)CCCCCCCCCC)[C@H]1CC[C@H](CO)CC1` [(1R, 4R) I-23, 8,8′-(((1R,4R)-4-(hydroxymethyl)cyclohexyl)azanediyl)bis(N,N-didecyloctanamide)], the “Serum IgG @ 0.3 mg/kg” value was 5.15 ± 1.83 µg/mL and the “Serum IgG @ 1.0 mg/kg” value worked out at 37.79 ± 6.41 µg/mL.

On to `CCCCCCCCCCN(CCCCCCCCN(CCCCCCCC(=O)N(CCCCCCCCCC)CCCCCCCCCC)[C@H]1CC[C@H](O)CC1)C(=O)CCCCCCCCC` [(1R, 4R) I-47, N-decyl-N-(8-((8-(didecylamino)-8-oxooctyl)((1r,4r)-4-hydroxycyclohexyl)amino)octyl)decanamide], for which the “Serum IgG @ 0.3 mg/kg” value worked out at 16.24 ± 2.93 µg/mL.

Regarding `CCCCCCCCCCN(CCCCCCCCCC)C(=O)CCCCCCCN(CCCCCCCC(=O)N(CCCCCCCCCC)CCCCCCCCCC)[C@@H]1CCC[C@@H]1O` [(1R, 2S) I-48, 8,8′-(((1r,2s)-2-hydroxycyclopentyl)azanediyl)bis(N,N-didecyloctanamide)], the “Serum IgG @ 0.3 mg/kg” value came to 28.32 ± 8.81 µg/mL.

Consider `CCCCCCCCCCN(CCCCCCCCCC)C(=O)CCCCCCCN(CCCCCCCC(=O)N(CCCCCCCCCC)CCCCCCCCCC)CC1CCC(O)C1` (centres unmarked) [Compound I-4, 8,8′-(((3-hydroxycyclopentyl)methyl)azanediyl)bis(N,N-didecyloctanamide)], for which the “Serum IgG @ 0.3 mg/kg” value was 32.39 ± 3.12 µg/mL and the “Serum IgG @ 1.0 mg/kg” value stood at 155.20 ± 15.34 µg/mL.

Take `CCCCCCCCCCCCN(CCCCCCCC)C(=O)CCCCCCCN(CCCCCCCC(=O)N(CCCCCCCC)CCCCCCCCCCCC)[C@H]1CC[C@@H](O)CC1` [(1S, 4S) I-62, 8,8′-(((1s,4s)-4-hydroxycyclohexyl)azanediyl)bis(N-dodecyl-N-octyloctanamide)]: the “Serum IgG @ 0.3 mg/kg” value was 48.49 ± 8.83 µg/mL.
